Reference: PubChem BioAssay AID1996
Converted amounts (≈) assume the structure as drawn.

Details: buffer; pH 7.4; 200.0 µM
In the case of `COc1ccccc1C1CCN(Cc2cccc3ccccc23)CC1`, the solubility kinetic is reported as < 0.7 µg/mL. A solubility kinetic of 21.4 µg/mL (≈ 84.1 µM) was found for `Cc1cc(NCC2CCCCC2)nc2ccccc12` in this work. A solubility kinetic of 40.4 µg/mL (≈ 139 µM) was found for `Cc1ccc([N+](=O)[O-])cc1NC(=O)C(C)N1CCCCC1` (centres undefined) in this work. For `O=C(Nc1ccc(F)cc1)c1cc(-c2ccccc2)no1`, the solubility kinetic was < 0.3 µg/mL. With `Cc1ccc(C(=O)C(C)[n+]2cccc(C(N)=O)c2)cc1.[Br-]` (centres undefined) the solubility kinetic was > 52.4 µg/mL. With `Cc1cc(C)nc(Sc2ncnc(N)c2[N+](=O)[O-])n1` the solubility kinetic was > 41.7 µg/mL. With `CCn1c(C)c(C)c2cc(C(=O)N3CCCC3)ccc21` the solubility kinetic was > 40.6 µg/mL. A solubility kinetic of 28.6 µg/mL (≈ 92.8 µM) was found for `CNC(=O)c1ccccc1Nc1ccc(SC(F)F)cc1` in this work. For `CC(C)[C@H](NC(=O)NCCC1=CCCCC1)C(=O)O`, the solubility kinetic was > 40.3 µg/mL. For `CC(C)Oc1c(N2CCOCC2)c(=O)c1=O`, the solubility kinetic was > 33.8 µg/mL. For `C=CCn1c(SCC(=O)Nc2c(C)n(C)n(-c3ccccc3)c2=O)nnc1-c1cccnc1`, the solubility kinetic was > 69.2 µg/mL. For `Nc1cccc(C(=O)NCCNC(=O)c2cccc(N)c2)c1`, the solubility kinetic was > 44.8 µg/mL. With `CC(=O)Nc1ccc(NC(=O)C(C)OC(=O)C2CCCC2)cc1` (centres undefined) the solubility kinetic was > 47.8 µg/mL. A solubility kinetic of 2 µg/mL (≈ 6.17 µM) was found for `CC(=O)c1c(C)[nH]c(C(=O)Nc2cccc(C(F)(F)F)c2)c1C` in this work. A solubility kinetic of 19.1 µg/mL (≈ 36.3 µM) was found for `CN(c1ccc(OCC(=O)OCC(=O)Nc2ccc(OC(F)F)cc2)cc1)S(=O)(=O)c1cccs1` in this work. For `CC(=O)OCc1c(C)cc(C)c(/C=C(/C#N)C(N)=O)c1C`, the solubility kinetic was > 42.9 µg/mL. With `N#C/C(=C\c1ccc[nH]1)C(=O)Nc1ccccc1Cl` the solubility kinetic was < 0.2 µg/mL. A solubility kinetic of 1 µg/mL (≈ 3.47 µM) was found for `O=C(Nc1nc2cc3c(cc2s1)OCO3)c1ccco1` in this work. A solubility kinetic of 33.2 µg/mL (≈ 149 µM) was found for `O=C1CCN2C=Nc3cccc4ccc1c2c34` in this work. With `O=S(=O)(N1CCOCC1)N1CCOCC1` the solubility kinetic was > 35.4 µg/mL. A solubility kinetic of 1.3 µg/mL (≈ 4.15 µM) was found for `O=[N+]([O-])c1cccc(NC(=S)N2CCc3ccccc3C2)c1` in this work. For `COCC(C)n1c(SCC(=O)Nc2c(C)n(C)n(-c3ccccc3)c2=O)nc2ccccc2c1=O` (centres undefined), the solubility kinetic was > 74 µg/mL. With `O=[N+]([O-])C(=C1NCCN1)C(Cl)=C(Cl)Cl` the solubility kinetic was > 38.8 µg/mL. A solubility kinetic of 31.8 µg/mL (≈ 94.8 µM) was found for `CC(=O)c1ccc(S(=O)(=O)N(C)C(C)CCc2ccco2)cc1` (centres undefined) in this work. A solubility kinetic of 0.5 µg/mL (≈ 1.68 µM) was found for `COc1ccccc1C(=O)Nc1sc2c(c1C#N)CCC2` in this work. A solubility kinetic of 0.5 µg/mL (≈ 1.47 µM) was found for `Cc1cc(C(=O)Nc2ccc(Br)cc2)c2ccccc2n1` in this work. In the case of `CCOC(=O)c1ccc(N2C(=O)CC(C)(CC)CC2=O)cc1`, the solubility kinetic is reported as > 45.5 µg/mL. A solubility kinetic of 1.6 µg/mL (≈ 4.53 µM) was found for `COc1ccc2cc(C(=O)N3CCN(c4ccc(F)cc4)CC3)[nH]c2c1` in this work. In the case of `CC1Oc2ccccc2N(CC(=O)NC2CCCCC2)C1=O` (centres undefined), the solubility kinetic is reported as > 45.4 µg/mL. With `Cc1ccc(C(=O)NCC(=O)N2CCCCCC2)cc1` the solubility kinetic was > 41.2 µg/mL. In the case of `CC(OC(=O)c1cccs1)C(=O)NC1CC1` (centres undefined), the solubility kinetic is reported as > 35.9 µg/mL. A solubility kinetic of 14.8 µg/mL (≈ 41.4 µM) was found for `CN(Cc1ccccc1)C(=O)COC(=O)CCC(=O)c1ccc(F)cc1` in this work. A solubility kinetic of 6.1 µg/mL (≈ 17.9 µM) was found for `CCOc1ccccc1NC(=O)C(=O)CC(=O)c1ccc(OC)cc1` in this work. For `COc1ccc(S(=O)(=O)N2CCN(c3cnccn3)CC2)cc1OC`, the solubility kinetic was > 54.7 µg/mL. A solubility kinetic of 35.7 µg/mL (≈ 115 µM) was found for `CC(=O)c1cc(CN2CCN(C(C)C)C(CCO)C2)cs1` (centres undefined) in this work. A solubility kinetic of 33.7 µg/mL (≈ 108 µM) was found for `O=C(CN1CCCCCC1)Nc1ccc(Br)cn1` in this work. A solubility kinetic of 16.4 µg/mL (≈ 58.5 µM) was found for `CC(C)(C)N1CSC(=S)N(Cc2ccccc2)C1` in this work. With `O=C(O)C1CC=CCC1C(=O)Nc1cccc([N+](=O)[O-])c1` (centres undefined) the solubility kinetic was > 43.5 µg/mL. A solubility kinetic of 35.6 µg/mL (≈ 110 µM) was found for `C/C(=C/c1ccccc1)C(=O)N1CCN(c2ccccc2F)CC1` in this work. A solubility kinetic of 25.3 µg/mL (≈ 141 µM) was found for `CC(C)c1ccc(C(N)=S)cc1` in this work. In the case of `O=C(c1ccc(NC(=O)C2(c3ccccc3)CCCC2)cc1)N1CCOCC1`, the solubility kinetic is reported as > 56.8 µg/mL. A solubility kinetic of 5.6 µg/mL (≈ 19.6 µM) was found for `CCCNC(=O)c1noc2c1CCc1cc(OC)ccc1-2` in this work. For `CC(NC(=O)c1ccc(Br)s1)c1ccncc1` (centres undefined), the solubility kinetic was > 46.7 µg/mL. For `O=C(NC(=O)c1ccccc1)Nc1ccc(-c2cnco2)cc1`, the solubility kinetic was < 0.2 µg/mL. With `CCN(CC)CC.COc1ccc(-n2c(=S)[nH]c3c(sc(=S)n3-c3ccccc3)c2=O)c(OC)c1` the solubility kinetic was > 64.4 µg/mL. With `CSc1ccc(NC(=O)NCc2cccnc2)cc1` the solubility kinetic was > 41 µg/mL. With `N#Cc1ccccc1OCC(O)CS(=O)(=O)c1ccccc1` (centres undefined) the solubility kinetic was > 47.6 µg/mL. A solubility kinetic of 4.1 µg/mL (≈ 12 µM) was found for `CCCCNc1nc2c(c(=O)n(Cc3ccccc3)c(=O)n2C)n1C` in this work. A solubility kinetic of 28.7 µg/mL (≈ 106 µM) was found for `Nc1ccccc1C(=O)NC12CC3CC(CC(C3)C1)C2` in this work. A solubility kinetic of 34.2 µg/mL (≈ 141 µM) was found for `Cc1ccc(NC(=S)c2ccncc2)c(C)c1` in this work. A solubility kinetic of 21 µg/mL (≈ 70.9 µM) was found for `CC(C)c1ccccc1NC(=O)c1ccc2ncsc2c1` in this work. A solubility kinetic of 39.3 µg/mL was found for `C[n+]1ccc(C(=O)NCc2ccccc2)cc1.[I-]` in this work. A solubility kinetic of 13.1 µg/mL (≈ 35.3 µM) was found for `COc1ccc(NC(=O)c2ccc(S(=O)(=O)C(F)F)cc2)c(OC)c1` in this work. A solubility kinetic of 52.7 µg/mL (≈ 145 µM) was found for `CC1(C)Cc2c(C#N)c(SCC(=O)O)nc(N3CCOCC3)c2CO1` in this work. A solubility kinetic of 6.4 µg/mL (≈ 19.1 µM) was found for `COc1ccc(S(=O)(=O)N2CCc3ccccc32)cc1[N+](=O)[O-]` in this work. A solubility kinetic of 33.1 µg/mL (≈ 149 µM) was found for `CCOC(=O)c1cc(C#N)c(=S)[nH]c1C` in this work. A solubility kinetic of 44.6 µg/mL (≈ 148 µM) was found for `NC(=O)c1ccc(NC(=O)CCC(=O)c2cccs2)cc1` in this work. For `CC(Cc1c[nH]c2ccccc12)NC(N)=O` (centres undefined), the solubility kinetic was > 32.6 µg/mL. With `COc1cccc(OC(=O)N2CCOCC2)c1` the solubility kinetic was > 35.6 µg/mL.
